Test: Excipient compatibility: montelukast sodium/excipient mixtures stored at 55° C. for 48 hours, sulfoxide of formula (I) by HPLC
Type: physicochemical
Details: for % Sulfoxide of Formula (I), 0 hours: by weight relative to montelukast sodium, before storage
Method: Comparative testing with montelukast sodium was performed to determine the conditions which cause the degradation of montelukast sodium into the corresponding sulfoxide. Compositions of montelukast sodium and each of the excipients of the prior art tablets were prepared and subjected to stressed storage conditions. The amount of the corresponding sulfoxide present in each of the compositions was measured by high performance liquid chromatography (“HPLC”) both before and after storage.
Sample mixtures of montelukast sodium and each of the individual excipients were prepared. Each sample was stored at 55° C. for 48 hours. The percentage by weight of sulfoxide of formula (I) relative to montelukast sodium in each sample was measured at 0 hours and at 48 hours by HPLC. HPLC was performed on a Beta-Basic C18 analytical column (150×4.6 mm I.D.), packed with 5 μm diameter particles (Thermo Election Corporation). The mobile phase was a mixture of acetonitrile and 20 mM KH2PO4 (60:40) and its flow-rate was 1.5 mL/min. The UV detector was set at 225 nm or 281 nm and the column temperature was 40° C.

Structure (SMILES) | increase of the amount of the corresponding sulfoxide in the composition over the storage period (in the presence of microcrystalline cellulose, stressed storage conditions) | % Sulfoxide of Formula (I), 0 hours
CC(C)(O)c1ccccc1CC[C@@H](SCC1(CC(=O)[O-])CC1)c1cccc(/C=C/c2ccc3ccc(Cl)cc3n2)c1.[Na+] [montelukast sodium, [R-(E)]-1-[[[1-[3-[2-(7-chloro-2-quinolinyl)ethenyl]phenyl]-3-[2-(1-hydroxy-1-methylethyl)phenyl]propyl]thio]methyl]cyclopropaneacetic acid, monosodium salt] | over 250% | –
CC(C)(O)c1ccccc1CC[C@@H](SCC1(CC(=O)[O-])CC1)c1cccc(/C=C/c2ccc3ccc(Cl)cc3n2)c1.[Na+] [Sample 7, Montelukast sodium] | – | 0.26%
CC(C)(O)c1ccccc1CC[C@@H](SCC1(CC(=O)[O-])CC1)c1cccc(/C=C/c2ccc3ccc(Cl)cc3n2)c1.[Na+] [Sample 1, Montelukast sodium] | – | 0.63%

From patent publication US20100120848A1, “STABLE PHARMACEUTICAL FORMULATIONS OF MONTELUKAST SODIUM” (Teva Pharmaceutical Industries Ltd., priority 2006, published 2010)
